Patent US12152012B2, “BRAG2 inhibitors and applications thereof” (CENTRE NATIONAL DE LA RECHERCHE SCIENTIFIQUE, priority 2018, dated 2024)

Legend:
BRAG2 (BRAG2^Sec7PH) = biological target: T1, BRAG2 (BRAG2^Sec7PH) (Homo sapiens, UniProt Q6DN90); assay: Nucleotide exchange kinetics on liposomes, activation of myristoylated Arf1; format: biochemical
T1 construct: human BRAG2^Sec7 (390-594) and BRAG2^Sec7PH (390-811); made in house
Method: The effect of Bragsin1 on the GEF efficiency of representative human ArfGEFs was evaluated by fluorescence kinetics using highly purified recombinant Arf GTPases and ArfGEFs. In a first series of assays, the Sec7 domains of BIG1, a Golgi ArfGEF, and of ARNO, EFA6a and BRAG2, which function at the plasma membrane, were used. When tested in solution, Bragsin1 had no effect on the activation of Arf1 by any of these Sec7 domains (FIGS. 2a and 14). Separately, we reconstituted the activation of myristoylated Arf1 by the same ArfGEFs on liposomes using ArfGEF constructs that contain a membrane-binding domain (DCB-HUS domain for BIG1, PH domains for the other GEFs). […] BRAG2 activates several Arf isoforms, including the plasma membrane-located Arf6 isoform. […] Bragsin1 and Bragsin2 have the same IC50 towards BRAG2 ([…]) according to dose-response analysis, confirming that Bragsin1 and Bragsin2 can be used interchangeably (FIG. 2d). The specific inhibition of BRAG2 by Bragsin in vitro predicts that BRAG2 silencing by siRNA should yield the same phenotype as treatment by the small molecule. Silencing of BRAG2 induced the redistribution of TGN46 into tubular or punctate structures, which phenocopied the effects induced by Bragsin (FIGS. 2e, 17 and 18). […] Silencing of ARNO, which is located at the plasma membrane, had no effect on TGN46 distribution. Overexpression of BRAG2-mCherry rescued the dispersion of the TGN46 structure induced by Bragsin, which is consistent with the silencing experiments (FIG. 2f). Bragsin is a specific inhibitor of the ArfGEF BRAG2 in vitro and in cells according to these experiments. These oexperiments identify a mechanism of inhibition that requires the membrane to manifests itself.
Bovine Δ17Arf1 and human Δ13Arf6, full-length myristoylated Arf1 and Arf6, human BRAG2^Sec7 (390-594) and BRAG2^Sec7PH (390-811), human EFA6^Sec7 (527-727) and EFA6^Sec7PHCt (527-1024), ARNO^Sec7 (50-256), BIG1^Sec7 (691-889), BIG1^DcbHusSec7 (2-888) and ARNO^Sec7PH (50-399) were expressed and purified as in (Benabdi, S. et al. Family-wide Analysis of the Inhibition of Arf Guanine Nucleotide Exchange Factors with Small Molecules: Evidence of Unique Inhibitory Profiles. Biochemistry 56, 5125-5133 (2017)) and references therein. BRAG2^Sec7PH mutants were purified as the wild type protein. Purification of human full-length Rac1 carrying a 6xHis tag in C-terminus and human TRIO^DH1PH1 (1232-1550) was described in (Peurois, F. et al. Characterization of the activation of small GTPases by their GEFs on membranes using artificial membrane tethering. Biochem J 474, 1259-1272 (2017)).
Lipids (of natural origin) were from Avanti Polar Lipids, except NBD-PE from Sigma. Liposomes were prepared as described in (Aizel, K. et al. Integrated conformational and lipid-sensing regulation of endosomal ArfGEF BRAG2. PLOS Biol 11, e1001652 (2013)) and extruded at 0.2 μm. For the Arf GEF specificity studies, liposomes contained 48% phosphatidylcholine (PC), 20% phosphatidylethanolamine (PE), 30% phosphatidylserine (PS) and 2% phosphatidylinositol-4,5-bisphosphate (PIP2). For Rac activation assay, liposomes contained 43% PC, 20% PE, 10% PS, 20% cholesterol, 2% PIP2, 5% NiNTA lipids and 0.2% NBD-PE. To exclude aggregation or disruption of the liposomes, their size distribution was controlled before and after experiments by dynamic light scattering as described in (Benabdi, S. et al. Biochemistry 56, 5125-5133 (2017)). Dose-response and flotation assays were carried out with liposomes containing 37.9% PC, 20% PE, 20% PS, 2% PIP2, 20% cholesterol and 0.1% NBD-PE. Flotation assays were carried out as in 18.
Nucleotide exchange kinetics were monitored by tryptophan fluorescence with excitation/emission wavelengths of 292/340 nm using a Cary Eclipse fluorimeter (Varian) at 37° C. and under continuous stirring as described in ^50,51. […]

[1] = tested on: TGN46 (trans-Golgi network marker) in Hela cells; assay: Immunostaining and confocal microscopy of Hela cells; format: cell-based, human; conditions: 50 μM

T1 sequence (Q6DN90 512-933): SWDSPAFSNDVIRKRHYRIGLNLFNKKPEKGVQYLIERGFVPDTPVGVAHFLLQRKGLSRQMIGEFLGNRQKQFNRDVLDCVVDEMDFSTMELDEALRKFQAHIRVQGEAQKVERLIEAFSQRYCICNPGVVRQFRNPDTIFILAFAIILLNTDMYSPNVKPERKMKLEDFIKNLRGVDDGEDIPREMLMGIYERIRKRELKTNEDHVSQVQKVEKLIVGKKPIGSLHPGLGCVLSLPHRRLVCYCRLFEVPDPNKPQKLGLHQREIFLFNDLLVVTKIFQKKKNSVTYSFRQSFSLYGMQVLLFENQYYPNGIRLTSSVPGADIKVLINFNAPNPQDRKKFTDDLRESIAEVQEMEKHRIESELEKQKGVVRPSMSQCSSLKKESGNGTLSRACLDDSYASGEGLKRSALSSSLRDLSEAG

Inhibition of BRAG2 in the presence of liposomes (BRAG2 (BRAG2^Sec7PH); 50 μM compound vs DMSO, myristoylated Arf1, liposomes) | Biological activity of hydrated derivative (BRAG2 (BRAG2^Sec7PH); derivative formed from Bragsin1 in aqueous solution) | Structure (SMILES) | Dispersion of TGN46 marker [1]
strongly inhibits | – | COc1cc(OC)c2oc(C(F)(F)F)cc(=O)c2c1[N+](=O)[O-] [Bragsin3, 6,8-dimethoxy-5-nitro-2-(trifluoromethyl)-4H-chromen-4-one] | disperses
– | biologically inactive | Cc1ccc2c(c1[N+](=O)[O-])C(=O)CC(O)(C(F)(F)F)O2 (stereo not drawn) [Compound 13, 2-hydroxy-6-methyl-5-nitro-2-(trifluoromethyl)chroman-4-one] | –
– | – | COc1ccc2oc(C(F)(F)F)cc(=O)c2c1C(=O)O [Compound 6, 6-methoxy-4-oxo-2-(trifluoromethyl)-4H-chromene-5-carboxylic acid] | not capable to disperse
– | – | COc1ccc2oc(C(F)(F)F)cc(=O)c2c1 [Compound 3, 6-methoxy-2-(trifluoromethyl)-4H-chromen-4-one] | not capable to disperse
– | – | COc1ccc2oc(C(F)(F)F)cc(=O)c2c1C=O [Compound 5, 6-methoxy-4-oxo-2-(trifluoromethyl)-4H-chromene-5-carbaldehyde] | less effect
